Test results taken from PMC8794255, “Small molecule inhibitor of Igf2bp1 represses Kras and a pro-oncogenic phenotype in cancer cells” (RNA Biology, 2021).

Columns and labels:
La = molecular target: T1, La (Homo sapiens, UniProt P05455); assay: MST, La protein; format: binding
T1 sequence (P05455 1-408): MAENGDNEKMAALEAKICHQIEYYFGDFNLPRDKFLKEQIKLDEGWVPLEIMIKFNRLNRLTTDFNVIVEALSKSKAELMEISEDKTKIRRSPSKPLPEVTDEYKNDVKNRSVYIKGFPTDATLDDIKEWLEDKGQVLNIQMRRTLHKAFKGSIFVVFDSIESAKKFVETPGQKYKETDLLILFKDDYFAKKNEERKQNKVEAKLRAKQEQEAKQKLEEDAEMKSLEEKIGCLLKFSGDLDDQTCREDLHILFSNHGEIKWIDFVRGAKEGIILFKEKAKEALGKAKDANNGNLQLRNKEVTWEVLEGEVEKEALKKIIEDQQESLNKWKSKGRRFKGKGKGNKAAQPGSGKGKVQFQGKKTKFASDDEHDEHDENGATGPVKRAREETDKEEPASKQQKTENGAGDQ

H1299 cells = assay: Growth in soft agar, H1299; format: cell-based, human; settings: H1299, 20 μM 7773
Description: Cells were grown for 12 hours in 6 well plates prior to incubation with the compound or DMSO for an additional 48 hours, 2000 cells were suspended in 0.3% agar-complete medium and then seeded in triplicates onto a 0.6% agar-complete medium base in a 6 well plate. After one week, the colonies were fed with 0.3% agar-complete medium, and after 2 additional weeks, imaged and quantified.

- Binding to La (La): No binding
Compound: O=C(c1ccc(Cn2cnnn2)cc1)N1CCCC(Nc2ccc3c(c2)OCO3)C1 (centres unmarked) [compound 7773]
- Ability to form colonies in soft agar (H1299 cells): dramatically inhibited
